Results on five molecules are retold here after ChEMBL document CHEMBL1145285, “Design and crystal structures of protein kinase B-selective inhibitors in complex with protein kinase A and mutants” (J Med Chem, 2005).

A short description of assay [1]: Inhibition of protein kinase AB (PKB amino acid substitutions). The class given is protein assay.
Assay [2] deals with cAMP-dependent protein kinase catalytic subunit alpha (Bos taurus) (UniProt P00517). The assay is described as follows: Binding constant for protein kinase AB5 (5 PKB amino acid substitutions).
Assay [3] is described as follows: Inhibition protein kinase A.
Assay [4] concerns the target cAMP-dependent protein kinase catalytic subunit alpha (Bos taurus) (UniProt P00517). Briefly: Binding constant for protein kinase AB3 (3 PKB amino acid substitutions).

What is called IC50 is the concentration that gives 50% inhibition. Low readings indicate greater potency, high ones weaker potency. A word on the Kd: it is the equilibrium constant for the complex coming apart. The low end stands for a tighter complex, the high end for a looser complex. One may read the pIC50 as −log10 of the IC50, conventionally taken in molar units. Read a low pIC50 as a large IC50.

pIC50: −log10 of the molar value.

On to `CC1(C)CCCNC1c1ccc(O)c(C(=O)c2ccc(C(=O)N[C@@H]3CCCNC[C@H]3NC(=O)c3ccncc3)cc2)c1F.Cl.Cl.Cl` (stereo partly specified), for which, in assay [1], the IC50 is on record as 750 nM. Further, the equilibrium dissociation constant (Kd) was determined as 260 nM in assay [2] and 3770 nM in assay [4]. Besides, the pIC50 in assay [3] is 5.62.
In assay [1], `CC1(C)CCN(c2ccc(O)c(C(=O)c3ccc(C(=O)N[C@@H]4CCCNC[C@H]4NC(=O)c4ccncc4)cc3)c2)CC1.Cl.Cl.Cl` came in with an IC50 of 40 nM. In other words, the double-digit nanomolar range.
Turning to `CC1(C)CCCN(c2ccc(O)c(C(=O)c3ccc(C(=O)N[C@@H]4CCCNC[C@H]4NC(=O)c4ccncc4)cc3)c2)C1.Cl.Cl.Cl`, the half-inhibitory concentration (IC50) in assay [1] is recorded as 20 nM. Besides, the equilibrium dissociation constant (Kd) in assay [2] was 8 nM; in assay [4] it was 77 nM. Besides, in assay [3], the pIC50 is 5.72.
Take `CN(C)c1ccc(O)c(C(=O)c2ccc(C(=O)N[C@@H]3CCCNC[C@H]3NC(=O)c3ccncc3)cc2)c1.Cl.Cl.Cl`: the half-inhibitory concentration (IC50) in assay [1] is recorded as 23 nM. Besides, in assay [3], the negative-log IC50 (pIC50) is 7.52. The molecule also gave a dissociation constant (Kd) in assay [4] of 41 nM.
Regarding `Cl.Cl.Cl.O=C(N[C@@H]1CCCNC[C@H]1NC(=O)c1ccncc1)c1ccc(C(=O)c2cc(N3CCCCC3)ccc2O)cc1`, in assay [1], the concentration for half-maximal inhibition (IC50) is recorded as 20 nM. Also, the Kd in assay [2] is 9 nM; in assay [4], 193 nM. Besides, the negative-log IC50 (pIC50) in assay [3] was 6.40.
